Measurements: ChEMBL document CHEMBL1201861, “Genomics of Drug Sensitity in Cancer screening data, Wellcome Trust Sanger Institute”
Where “and” joins values, the source holds several entries; their conditions need not be identical. Equal values may be shown once. Where a SMILES comes first, the peptide text is derived from it. The star is where a group is joined. Cbz = O=C(OCc1ccccc1)*

Tests used:
COR-L279 = assay: SANGER: Inhibition of human COR-L279 cell growth in a cell viability assay.; type: functional, cell-based
D-336MG = assay: cells; type: functional, cell-based, Homo sapiens
Description: SANGER: Inhibition of human D-336MG cell growth in a cell viability assay.

HCC1599 = assay: cells; type: functional, cell-based, Homo sapiens;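 also: growth inhibition of HCC1599 cells, read out in a cell viability assay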
Description: SANGER: Inhibition of human HCC1599 cell growth in a cell viability assay.

IMR-5 = assay: cells; type: functional, cell-based, Homo sapiens;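 also: growth inhibition of human IMR-5 cells, read out with a cell viability assay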
Description: SANGER: Inhibition of human IMR-5 cell growth in a cell viability assay.

LU-165 = assay: cells; type: functional, cell-based, Homo sapiens
Description: SANGER: Inhibition of human LU-165 cell growth in a cell viability assay.

NB17 = assay: cells; type: functional, cell-based, Homo sapiens;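 also: growth inhibition of NB17 cells, read out with a cell viability assay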
Description: SANGER: Inhibition of human NB17 cell growth in a cell viability assay.

NCCIT = assay: SANGER: Inhibition of human NCCIT cell growth in a cell viability assay.; type: functional, cell-based
NCI-H716 = assay: cells; type: functional, cell-based, Homo sapiens;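 also: growth inhibition of human NCI-H716 cells, measured by a cell viability assay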
Description: SANGER: Inhibition of human NCI-H716 cell growth in a cell viability assay.

NCI-H748 = assay: cells; type: functional, cell-based, Homo sapiens;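 also: growth inhibition of NCI-H748 cells, measured by a cell viability assay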
Description: SANGER: Inhibition of human NCI-H748 cell growth in a cell viability assay.

REH = assay: cells; type: functional, cell-based, Homo sapiens;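 also: growth inhibition of REH cells determined with a cell viability read-out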
Description: SANGER: Inhibition of human REH cell growth in a cell viability assay.

CA46 = assay: cells; type: functional, cell-based, Homo sapiens;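 also: growth inhibition of human CA46 cells, read out by a cell viability assay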
Description: SANGER: Inhibition of human CA46 cell growth in a cell viability assay.

CAL-148 = assay: cells; type: functional, cell-based, Homo sapiens
Description: SANGER: Inhibition of human CAL-148 cell growth in a cell viability assay.

THP-1 = assay: cells; type: functional, cell-based, Homo sapiens;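 also: growth inhibition of THP-1 cells, read out via a cell viability assay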
Description: SANGER: Inhibition of human THP-1 cell growth in a cell viability assay.

CHP-126 = assay: cells; type: functional, cell-based, Homo sapiens
Description: SANGER: Inhibition of human CHP-126 cell growth in a cell viability assay.

CMK = assay: cells; type: functional, cell-based, Homo sapiens;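 also: growth inhibition of CMK cells, read out as cell viability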
Description: SANGER: Inhibition of human CMK cell growth in a cell viability assay.

[1] = Homo sapiens, IMR-5, read-out: IC50

Compound: Nc1ccccc1NC(=O)c1ccc(CNC(=O)OCc2cccnc2)cc1 [ENTINOSTAT]
- IC50 (COR-L279; Homo sapiens, COR-L279): 0.71 µM
- IC50 (D-336MG; Homo sapiens, D-336MG): > 5 µM
- IC50 (HCC1599; Homo sapiens, HCC1599): 0.516 µM
- IC50 (IMR-5; [1]): > 5 µM
- IC50 (LU-165; Homo sapiens, LU-165): 0.618 µM
- IC50 (NB17; Homo sapiens, NB17): 0.544 µM
- IC50 (NCCIT; Homo sapiens, NCCIT): 0.386 µM
- IC50 (NCI-H716; Homo sapiens, NCI-H716): > 5 µM
- IC50 (NCI-H748; Homo sapiens, NCI-H748): 0.103 µM
- IC50 (REH; Homo sapiens, REH): > 5 µM
- IC50 (CA46; Homo sapiens, CA46): > 5 µM
- IC50 (CAL-148; Homo sapiens, CAL-148): 1.33 µM
- IC50 (THP-1; Homo sapiens, THP-1): > 5 µM
- IC50 (CHP-126; Homo sapiens, CHP-126): 0.402 µM
- IC50 (CMK; Homo sapiens, CMK): 0.357 µM

Compound: COc1cc(N2CCC(N3CCN(C)CC3)CC2)ccc1Nc1ncc(Cl)c(Nc2ccccc2S(=O)(=O)C(C)C)n1 [TAE-684]
- IC50 (COR-L279; Homo sapiens, COR-L279): > 2 µM
- IC50 (D-336MG; Homo sapiens, D-336MG): 0.662 µM
- IC50 (HCC1599; Homo sapiens, HCC1599): > 2 µM
- IC50 (IMR-5; [1]): > 2 µM
- IC50 (LU-165; Homo sapiens, LU-165): > 2 µM
- IC50 (NB17; Homo sapiens, NB17): 1.01 µM
- IC50 (NCCIT; Homo sapiens, NCCIT): > 2 µM
- IC50 (NCI-H716; Homo sapiens, NCI-H716): 1.07 µM
- IC50 (NCI-H748; Homo sapiens, NCI-H748): > 2 µM
- IC50 (REH; Homo sapiens, REH): > 2 µM
- IC50 (CA46; Homo sapiens, CA46): > 2 µM
- IC50 (CAL-148; Homo sapiens, CAL-148): > 2 µM
- IC50 (THP-1; Homo sapiens, THP-1): > 2 µM
- IC50 (CHP-126; Homo sapiens, CHP-126): 0.86 µM
- IC50 (CMK; Homo sapiens, CMK): 0.255 µM

Compound: CC(C)C[C@@H](C=O)NC(=O)[C@H](CC(C)C)NC(=O)[C@H](CC(C)C)NC(=O)OCc1ccccc1 [MG-132] (Cbz-Leu-Leu-Leu-aldehyde)
- IC50 (COR-L279; cor-l279): > 1 µM
- IC50 (D-336MG; d-336mg): > 1 µM
- IC50 (HCC1599; hcc1599): > 1 µM
- IC50 (IMR-5; [1]): > 1 µM
- IC50 (IMR-5; imr-5, read-out: IC50): > 1 µM
- IC50 (LU-165; lu-165): > 1 µM
- IC50 (NB17; nb17): 0.43 µM and > 1 µM
- IC50 (NCCIT; nccit): 0.318 µM and > 1 µM
- IC50 (NCI-H716; nci-h716): > 1 µM
- IC50 (NCI-H748; Homo sapiens, NCI-H748): > 1 µM
- IC50 (NCI-H748; nci-h748): > 1 µM
- IC50 (REH; reh): > 1 µM
- IC50 (CA46; Homo sapiens, CA46): > 1 µM
- IC50 (CA46; ca46): > 1 µM
- IC50 (CAL-148; cal-148): > 1 µM
- IC50 (THP-1; thp-1): > 1 µM
- IC50 (CHP-126; chp-126): > 1 µM
- IC50 (CMK; cmk): 0.311 µM and > 1 µM

Compound: COc1ccc(N(C(=O)Oc2c(C)cccc2C)c2ccnc(Nc3ccc(N4CCN(C)CC4)cc3)n2)c(OC)c1
- IC50 (COR-L279; Homo sapiens, COR-L279): > 5.12 µM
- IC50 (D-336MG; Homo sapiens, D-336MG): 0.0468 µM
- IC50 (HCC1599; Homo sapiens, HCC1599): > 5.12 µM
- IC50 (IMR-5; [1]): > 5.12 µM
- IC50 (LU-165; Homo sapiens, LU-165): > 5.12 µM
- IC50 (NB17; Homo sapiens, NB17): 2.63 µM
- IC50 (NCCIT; Homo sapiens, NCCIT): > 5.12 µM
- IC50 (NCI-H716; Homo sapiens, NCI-H716): > 5.12 µM
- IC50 (NCI-H748; Homo sapiens, NCI-H748): > 5.12 µM
- IC50 (REH; Homo sapiens, REH): > 5.12 µM
- IC50 (CA46; Homo sapiens, CA46): > 5.12 µM
- IC50 (CAL-148; Homo sapiens, CAL-148): > 5.12 µM
- IC50 (THP-1; Homo sapiens, THP-1): > 5.12 µM
- IC50 (CHP-126; Homo sapiens, CHP-126): > 5.12 µM
- IC50 (CMK; Homo sapiens, CMK): > 5.12 µM

Compound: Cc1ccc(NC(=O)c2ccc(CN3CCN(C)CC3)cc2)cc1Nc1nccc(-c2cccnc2)n1 [IMATINIB]
- IC50 (COR-L279; Homo sapiens, COR-L279): > 2 µM
- IC50 (D-336MG; Homo sapiens, D-336MG): > 2 µM
- IC50 (HCC1599; Homo sapiens, HCC1599): > 2 µM
- IC50 (IMR-5; Homo sapiens, IMR-5): > 2 µM
- IC50 (LU-165; Homo sapiens, LU-165): > 2 µM
- IC50 (NB17; Homo sapiens, NB17): > 2 µM
- IC50 (NCCIT; Homo sapiens, NCCIT): > 2 µM
- IC50 (NCI-H716; Homo sapiens, NCI-H716): > 2 µM
- IC50 (NCI-H748; Homo sapiens, NCI-H748): > 2 µM
- IC50 (REH; Homo sapiens, REH): > 2 µM
- IC50 (CA46; Homo sapiens, CA46): > 2 µM
- IC50 (CAL-148; Homo sapiens, CAL-148): > 2 µM
- IC50 (THP-1; Homo sapiens, THP-1): > 2 µM
- IC50 (CHP-126; Homo sapiens, CHP-126): > 2 µM
- IC50 (CMK; Homo sapiens, CMK): > 2 µM
